Patent publication US10669276B2, “Fused pyrimidine derivatives” (Hoffmann-La Roche Inc., priority 2016, dated 2020)

Biological target: γ-secretase (Homo sapiens (Human), UniProt P49768)
Experiment: Cellular γ-secretase assay (Aβ42 secretion, AlphaLisa)
Format: cell-based
Settings: inhibition of Aβ42 secretion; human neuroglioma H4 cells overexpressing human APP695 Swedish double mutation; 24 hr compound incubation
Procedure: Human neuroglioma H4 cells overexpressing human APP695 with the Swedish double mutation (K595N/M596L) were plated at 30,000 cells/well/100 μl in 96-well plates in IMDM media containing 10% FCS, 0.2 mg/l Hygromycin B and incubated at 37° C., 5% CO2.
3-4 hr post plating, compounds are a diluted in media and 50 μl is added as […] concentrate to achieve the final concentration. Compound incubation is performed for 24 hr. Final doses typically range from 4 μM down to 0.0013 μM in half-log steps resulting in an eight point dose response curve. Appropriate controls using vehicle only and reference compound were applied to this assay. The final concentration of Me2SO was 0.4%.
After incubation at 37° C., 5% CO2, the supernatant was subjected to quantification of secreted Aβ42 by the means of an AlphaLisa assay kit (Human Amyloid beta 1-42 Kit: Cat # AL203C, Perkin Elmer). 20 μl of the cell culture supernatant was transferred to an assay plate. Then 10 μl of a mixture of the AlphaLisa coupled capture antibody and the biotinylated detection antibody was added and incubated for 3 hours at room temperature while softly shaking the assay plate. After a further addition of 20 μl of the Donor beads the assay plate was incubated for 30 min at room temperature and constant shaking without exposure to direct light. The assay plate was then read on a Paradigm AlphaLisa Reader using the build-in program with excitation at 680 nm and emission at […]. The measured signals were then used to calculate IC50 values for inhibition of Aβ42 secretion by nonlinear regression fit analysis using XLfit 5.3 software (IDBS).

| Compound | EC50 |
| --- | --- |
| CNc1nc(Nc2ccc(-n3cnc(C)c3)cc2)nc2c1C(C)(C)CN2c1ccc(F)cc1 [Example 12, 7-(4-Fluorophenyl)-N4,5,5-trimethyl-N2-(4-(4-methyl-1H-imidazol-1-yl)phenyl)-6,7-dihydro-5H-pyrrolo[2,3-d]pyrimidine-2,4-diamine] | 13 nM |
| CNc1nc(Nc2ccc(-n3cnc(C)n3)c(F)c2)nc2c1C(C)(C)CN2c1ccc(F)cc1F [Example 24, 7-(2,4-Difluorophenyl)-N2-(3-fluoro-4-(3-methyl-1H-1,2,4-triazol-1-yl)phenyl)-N4,5,5-trimethyl-6,7-dihydro-5H-pyrrolo[2,3-d]pyrimidine-2,4-diamine] | 22 nM |
| CNc1nc(Nc2ccc(-n3cnc(C)n3)c(OC)c2)nc2c1C(C)(C)CN2C1CC(F)(F)C1 [Example 17, 7-(3,3-Difluorocyclobutyl)-N2-(3-methoxy-4-(3-methyl-1H-1,2,4-triazol-1-yl)phenyl)-N4,5,5-trimethyl-6,7-dihydro-5H-pyrrolo[2,3-d]pyrimidine-2,4-diamine] | 19 nM |
| CNc1nc(Nc2cnc(-n3cnc(C)c3)c(OC)c2)nc2c1C(C)(C)CN2C12CC(C(F)(F)F)(C1)C2 [Example 22, N2-(5-Methoxy-6-(4-methyl-1H-imidazol-1-yl)pyridin-3-yl)-N4,5,5-trimethyl-7-(3-(trifluoromethyl)bicyclo[1.1.1]pentan-1-yl)-6,7-dihydro-5H-pyrrolo[2,3-d]pyrimidine-2,4-diamine] | 30 nM |
| CNc1nc(Nc2ccc(-n3cnc(C)n3)c(F)c2)nc2c1C(C)(C)CN2c1ccc(F)cc1 [Example 3, N2-(3-Fluoro-4-(3-methyl-1H-1,2,4-triazol-1-yl)phenyl)-7-(4-fluorophenyl)-N4,5,5-trimethyl-6,7-dihydro-5H-pyrrolo[2,3-d]pyrimidine-2,4-diamine] | 16 nM |
| Cc1ncn(-c2ccc(Nc3nc(NCCO)c4c(n3)N(c3ccc(F)cc3)CC4(C)C)cc2F)n1 [Example 31, 2-((2-((3-Fluoro-4-(3-methyl-1H-1,2,4-triazol-1-yl)phenyl)amino)-7-(4-fluorophenyl)-5,5-dimethyl-6,7-dihydro-5H-pyrrolo[2,3-d]pyrimidin-4-yl)amino)ethanol] | 15 nM |
| CNc1nc(Nc2ccc(-n3cnc(C)n3)c(OC)c2)nc2c1C(C)(C)CN2c1cccc(F)c1F [Example 41, 7-(2,3-Difluorophenyl)-N2-(3-methoxy-4-(3-methyl-1H-1,2,4-triazol-1-yl)phenyl)-N4,5,5-trimethyl-6,7-dihydro-5H-pyrrolo[2,3-d]pyrimidine-2,4-diamine] | 9 nM |
| CNc1nc(Nc2ccc(-c3nnc(C)o3)c(OC)c2)nc2c1C(C)(C)CN2c1ccc(F)cc1 [Example 27, 7-(4-Fluorophenyl)-N2-(3-methoxy-4-(5-methyl-1,3,4-oxadiazol-2-yl)phenyl)-N4,5,5-trimethyl-6,7-dihydro-5H-pyrrolo[2,3-d]pyrimidine-2,4-diamine] | 30 nM |
| CNc1nc(Nc2ccc(-n3cnc(C)n3)c(OC)c2)nc2c1C(C)(C)CCN2c1ccc(F)cc1 [Example 35, 8-(4-Fluorophenyl)-N2-(3-methoxy-4-(3-methyl-1H-1,2,4-triazol-1-yl)phenyl)-N4,5,5-trimethyl-5,6,7,8-tetrahydropyrido[2,3-d]pyrimidine-2,4-diamine] | 13 nM |
| CNc1nc(Nc2ccc(-n3ncnc3C)c(F)c2)nc2c1C(C)(C)CN2c1ccc(F)cc1 [Example 5, N2-(3-Fluoro-4-(5-methyl-1H-1,2,4-triazol-1-yl)phenyl)-7-(4-fluorophenyl)-N4,5,5-trimethyl-6,7-dihydro-5H-pyrrolo[2,3-d]pyrimidine-2,4-diamine] | 22 nM |
| COc1cc(Nc2nc(NCCO)c3c(n2)N(c2ccc(F)cc2)CC3(C)C)ccc1-n1cnc(C)n1 [Example 28, 2-((7-(4-Fluorophenyl)-2-((3-methoxy-4-(3-methyl-1H-1,2,4-triazol-1-yl)phenyl)amino)-5,5-dimethyl-6,7-dihydro-5H-pyrrolo[2,3-d]pyrimidin-4-yl)amino)ethanol] | 8 nM |
| CNc1nc(Nc2cnc(-n3cnc(C)c3)c(F)c2)nc2c1C(C)(C)CCN2c1ccc(F)cc1 [Example 36, N2-(5-Fluoro-6-(4-methyl-1H-imidazol-1-yl)pyridin-3-yl)-8-(4-fluorophenyl)-N4,5,5-trimethyl-5,6,7,8-tetrahydropyrido[2,3-d]pyrimidine-2,4-diamine] | 14 nM |
| CNc1nc(Nc2cnc(-n3cnc(C)c3)c(OC)c2)nc2c1C(C)(C)CN2c1ccc(F)c(F)c1 [Example 15, 7-(3,4-Difluorophenyl)-N2-(5-methoxy-6-(4-methyl-1H-imidazol-1-yl)pyridin-3-yl)-N4,5,5-trimethyl-6,7-dihydro-5H-pyrrolo[2,3-d]pyrimidine-2,4-diamine] | 8 nM |
| COc1cc(Nc2nc(NCCO)c3c(n2)N(c2ccc(F)cc2)CC3(C)C)cnc1-n1cnc(Cl)c1 [Example 30, 2-((2-((6-(4-Chloro-1H-imidazol-1-yl)-5-methoxypyridin-3-yl)amino)-7-(4-fluorophenyl)-5,5-dimethyl-6,7-dihydro-5H-pyrrolo[2,3-d]pyrimidin-4-yl)amino)ethanol] | 11 nM |
| CNc1nc(Nc2ccc(-n3cnc(C)n3)c(F)c2)nc2c1C(C)(C)CN2c1ccc(F)c(F)c1 [Example 9, 7-(3,4-Difluorophenyl)-N2-(3-fluoro-4-(3-methyl-1H-1,2,4-triazol-1-yl)phenyl)-N4,5,5-trimethyl-6,7-dihydro-5H-pyrrolo[2,3-d]pyrimidine-2,4-diamine] | 26 nM |

More lines, in order of falling EC50, values ahead:

| EC50 | Compound |
| --- | --- |
| 8 nM | CNc1nc(Nc2ccc(-n3cnc(C)n3)c(OC(F)F)c2)nc2c1C(C)(C)CN2c1ccc(F)cc1 [Example 2, N2-(3-(Difluoromethoxy)-4-(3-methyl-1H-1,2,4-triazol-1-yl)phenyl)-7-(4-fluorophenyl)-N4,5,5-trimethyl-6,7-dihydro-5H-pyrrolo[2,3-d]pyrimidine-2,4-diamine] |
| 8 nM | CNc1nc(Nc2ccc(-n3cnc(C)n3)c(OC)c2)nc2c1C(C)(C)CN2c1ccc(F)cc1F [Example 19, 7-(2,4-Difluorophenyl)-N2-(3-methoxy-4-(3-methyl-1H-1,2,4-triazol-1-yl)phenyl)-N4,5,5-trimethyl-6,7-dihydro-5H-pyrrolo[2,3-d]pyrimidine-2,4-diamine] |
| 7 nM | CNc1nc(Nc2ccc(-n3cnc(Cl)c3)c(OC)c2)nc2c1C(C)(C)CN2c1ccc(F)cc1 [Example 4, N2-(4-(4-Chloro-1H-imidazol-1-yl)-3-methoxyphenyl)-7-(4-fluorophenyl)-N4,5,5-trimethyl-6,7-dihydro-5H-pyrrolo[2,3-d]pyrimidine-2,4-diamine] |
| 6 nM | CNc1nc(Nc2ccc(-n3cnc(C)c3)c(F)c2)nc2c1CCN2c1ccc(F)cc1 [Example 38, N2-(3-Fluoro-4-(4-methyl-1H-imidazol-1-yl)phenyl)-7-(4-fluorophenyl)-N4-methyl-6,7-dihydro-5H-pyrrolo[2,3-d]pyrimidine-2,4-diamine] |
| 6 nM | COc1cc(Nc2nc(NCCO)c3c(n2)N(c2ccc(F)cc2)CC3(C)C)cnc1-n1cnc(C)c1 [Example 29, 2-((7-(4-Fluorophenyl)-2-((5-methoxy-6-(4-methyl-1H-imidazol-1-yl)pyridin-3-yl)amino)-5,5-dimethyl-6,7-dihydro-5H-pyrrolo[2,3-d]pyrimidin-4-yl)amino)ethanol] |
| 6 nM | CNc1nc(Nc2ccc(-n3cnc(C)n3)c(OC)c2)nc2c1C(C)CN2c1ccc(F)cc1 (stereo not shown) [Example 39, 7-(4-Fluorophenyl)-N2-(3-methoxy-4-(3-methyl-1H-1,2,4-triazol-1-yl)phenyl)-N4,5-dimethyl-6,7-dihydro-5H-pyrrolo[2,3-d]pyrimidine-2,4-diamine] |
| 5 nM | CNc1nc(Nc2cnc(-n3cnc(C)c3)c(OC)c2)nc2c1C(C)(C)CN2c1ccc(F)cc1 [Example 7, 7-(4-Fluorophenyl)-N2-(5-methoxy-6-(4-methyl-1H-imidazol-1-yl)pyridin-3-yl)-N4,5,5-trimethyl-6,7-dihydro-5H-pyrrolo[2,3-d]pyrimidine-2,4-diamine] |
| 5 nM | CNc1nc(Nc2ccc(-n3cnc(C)c3)c(F)c2)nc2c1C(C)(C)CN2c1cccc(F)c1F [Example 43, 7-(2,3-Difluorophenyl)-N2-(3-fluoro-4-(4-methyl-1H-imidazol-1-yl)phenyl)-N4,5,5-trimethyl-6,7-dihydro-5H-pyrrolo[2,3-d]pyrimidine-2,4-diamine] |
| 5 nM | CNc1nc(Nc2ccc(-n3cnc(C)n3)c(OC)c2)nc2c1C(C)(C)CN2c1ccc(F)c(F)c1 [Example 8, 7-(3,4-Difluorophenyl)-N2-(3-methoxy-4-(3-methyl-1H-1,2,4-triazol-1-yl)phenyl)-N4,5,5-trimethyl-6,7-dihydro-5H-pyrrolo[2,3-d]pyrimidine-2,4-diamine] |
| 5 nM | CNc1nc(Nc2ccc(-n3cnc(C)c3)c(F)c2)nc2c1[C@H](C)CN2c1ccc(F)cc1 (single isomer, unassigned) [Example 46p, (S)- or (R)—N2-(3-Fluoro-4-(4-methyl-1H-imidazol-1-yl)phenyl)-7-(4-fluorophenyl)-N4,5-dimethyl-6,7-dihydro-5H-pyrrolo[2,3-d]pyrimidine-2,4-diamine] |
